What was measured:
[1] = Use as a growth factor in weaned piglets (Example 5); format: in vivo, weaned Large-White Belgian Landrace crossed piglets; details: for Weight gain / Consumption / Intermediate Weight / Initial weight / Index of consumption: 40 ppm in feed; for Initial weight: start of period 14-28 days; for Index of consumption: consumption/weight gain ratio
[2] = Use as a growth factor in piglets (Example 6); format: in vivo, weaned Large-White Belgian Landrace crossed piglets; details: 40 ppm in feed; for Final weight: control 24.7
Excerpt: 130 weaned Large-White Belgian Landrace crossed piglets were used. The experiment began 2 weeks after weaning of the animals, i.e. at a mean age of 42 days.
The animals received the experimental feed ad libitum in the form of granules 2.5 mm in diameter.
The animals were weighed at the beginning, middle and end of the experiment. The consumptions were noted every week.
Tables 7, 8 and 9 respectively show the percentage composition and the characteristics of the diets, the percentage composition of the CMV and the percentage composition of the premixes.
The results are shown in Table 10 for the period 0-14 days, Table 11 for the period 14-28 days and Table 12 for the period 0-28 days.

[3] = Table 4, 0-14 days, control 15.3
[4] = Table 5, 14-28 days, control 23.1
[5] = Table 6, 0-28 days, control 23.1

Compound: CC[C@H]1OC(=O)C[C@@H](O)[C@H](C)[C@@H](O[C@@H]2O[C@H](C)[C@@H](O[C@H]3C[C@@](C)(O)[C@@H](O)[C@H](C)O3)[C@H](N(C)C)[C@H]2O)[C@@H](CC=O)C[C@@H](C)C(=O)/C=C/C(C)=C/[C@@H]1CO[C@@H]1O[C@H](C)[C@@H](O)[C@@H](OC)[C@H]1OC [tylosin, reference compound]
- Weight gain ([1]; 0-14 days, control 329): 351 g/day
- Consumption ([1]; 0-14 days, control 614): 619 g/day
- Weight gain ([1]; 0-28 days, control 445): 470 g/day
- Consumption ([1]; 0-28 days, control 822): 826 g/day
- Weight gain ([1]; 14-28 days, control 560): 588 g/day
- Consumption ([1]; 14-28 days, control 1031): 1033 g/day
- Intermediate Weight [1, 3]: 15.6 kg
- Intermediate Weight [1, 4]: 23.8 kg
- Intermediate Weight [1, 5]: 23.8 kg
- Initial weight ([1]; control 15.3): 15.6 kg
- Index of consumption ([1]; 0-14 days, control 1.88): 1.79
- Index of consumption ([1]; 0-28 days, control 1.85): 1.76
- Index of consumption ([1]; 14-28 days, control 1.86): 1.76

Compound: spiramycin embonate [reference compound]
- Index of consumption ([2]; 0-14 days, control 1.76): 1.70
- Weight gain ([2]; 0-14 days, control 368): 423 g/day
- Consumption ([2]; 0-14 days, control 645): 715 g/day
- Index of consumption ([2]; 0-28 days, control 1.80): 1.73
- Weight gain ([2]; 0-28 days, control 474): 532 g/day
- Consumption ([2]; 0-28 days, control 852): 923 g/day
- Index of consumption ([2]; 14-28 days, control 1.84): 1.77
- Weight gain ([2]; 14-28 days, control 579): 640 g/day
- Consumption ([2]; 14-28 days, control 1059): 1130 g/day
- Final weight ([2]; Table 11, 14-28 days): 26.3 kg
- Final weight ([2]; Table 12, 0-28 days): 26.3 kg
- Weight gain ([1]; 0-14 days, control 329): 393 g/day
- Consumption ([1]; 0-14 days, control 614): 668 g/day
- Weight gain ([1]; 0-28 days, control 445): 518 g/day
- Consumption ([1]; 0-28 days, control 822): 908 g/day
- Weight gain ([1]; 14-28 days, control 560): 647 g/day
- Consumption ([1]; 14-28 days, control 1031): 1147 g/day
- Intermediate Weight [1, 3]: 16.3 kg
- Intermediate Weight [1, 4]: 25.4 kg
- Intermediate Weight [1, 5]: 25.4 kg
- Initial weight ([1]; control 15.3): 16.3 kg
- Index of consumption ([1]; 0-14 days, control 1.88): 1.72
- Index of consumption ([1]; 0-28 days, control 1.85): 1.75
- Index of consumption ([1]; 14-28 days, control 1.86): 1.79
- effect on consumption (in words) ([1]; first period 0-14 days): increase in consumption
- effect on consumption (in words) ([1]; overall period 0-28 days): significantly increased
- effect on growth (in words) ([1]; overall period 0-28 days, relative to basic diet): significantly increased
- effect on growth (in words) ([1]; second period 14-28 days): significantly improved

From patent US5254533A, “Elfamycin” (Rhone-Poulenc Rorer S.A., priority 1990, dated 1993)
